What was measured:
D(2) dopamine receptor [1] = target: T1, D(2) dopamine receptor (Bos taurus, UniProt P20288); assay: Inhibition of [3H]YM-09151-2 binding to bovine retina membrane Dopamine receptor D2, high affinity site
D(2) dopamine receptor [2] = target: T1, D(2) dopamine receptor; assay: Inhibition of [3H]YM-09151-2 binding to bovine retina membrane Dopamine receptor D2, low affinity site
D(2) dopamine receptor [3] = target: T1, D(2) dopamine receptor; assay: Tested for binding affinity against Dopamine receptor D2 like from bovine striatum membranes by using [3H]YM-09151-2 radioligand
D(1A) dopamine receptor = D(1A) dopamine receptor (Bos taurus, UniProt Q95136); assay: Binding affinity against Dopamine receptor D1 like from bovine retina membranes measured using [3H]SCH-23390 radioligand
D(1A) dopamine receptor, sequence (Q95136 whole entry): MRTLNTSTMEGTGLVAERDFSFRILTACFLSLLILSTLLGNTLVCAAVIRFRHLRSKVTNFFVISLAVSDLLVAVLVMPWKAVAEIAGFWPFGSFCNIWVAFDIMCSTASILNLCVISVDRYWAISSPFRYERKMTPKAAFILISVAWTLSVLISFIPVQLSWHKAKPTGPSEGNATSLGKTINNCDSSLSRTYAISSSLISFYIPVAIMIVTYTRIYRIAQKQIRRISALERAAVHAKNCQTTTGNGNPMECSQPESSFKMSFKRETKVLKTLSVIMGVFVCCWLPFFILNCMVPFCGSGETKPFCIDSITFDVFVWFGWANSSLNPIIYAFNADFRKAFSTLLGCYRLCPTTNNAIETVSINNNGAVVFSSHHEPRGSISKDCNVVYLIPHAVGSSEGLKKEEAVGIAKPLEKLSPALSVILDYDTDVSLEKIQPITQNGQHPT

T1 sequence (P20288 whole entry): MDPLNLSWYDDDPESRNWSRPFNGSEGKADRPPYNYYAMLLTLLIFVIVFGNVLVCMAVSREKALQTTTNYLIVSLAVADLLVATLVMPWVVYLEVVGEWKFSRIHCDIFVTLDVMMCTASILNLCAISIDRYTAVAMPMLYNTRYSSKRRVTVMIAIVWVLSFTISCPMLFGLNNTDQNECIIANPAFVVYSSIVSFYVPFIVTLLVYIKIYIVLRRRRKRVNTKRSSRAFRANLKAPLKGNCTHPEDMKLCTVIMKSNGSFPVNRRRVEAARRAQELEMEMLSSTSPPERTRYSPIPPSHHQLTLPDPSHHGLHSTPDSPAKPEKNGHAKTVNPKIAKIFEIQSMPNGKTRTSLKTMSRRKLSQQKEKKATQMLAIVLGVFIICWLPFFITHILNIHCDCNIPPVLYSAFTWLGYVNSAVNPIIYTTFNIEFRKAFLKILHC

SMILES	Ki (D(2) dopamine receptor [1]) [µM]	Ki (D(2) dopamine receptor [2]) [µM]	Ki (D(2) dopamine receptor [3]) [µM]	Ki (D(1A) dopamine receptor) [µM]
Cc1cccc(C2CCCNC2)c1C (stereo unspecified)	0.043	16	–	–
CCCN1CCCC(c2cc(C)cc(C)c2)C1 (stereo unspecified)	0.052	9.3	1.3	60
CCCN1CCCC(c2ccc(C)cc2C)C1 (stereo unspecified)	0.72	17	–	100
CCCN1CCCC(c2c(C)cccc2C)C1 (stereo unspecified)	0.156	23	–	98
CCCN1CCCC(c2cc(C)ccc2C)C1 (stereo unspecified)	0.54	25	–	112
CCCN1CCCC(c2cccc(C)c2C)C1 (stereo unspecified)	0.0753	7.8	4.9	60
Cc1cc(C)cc(C2CCCNC2)c1 (stereo unspecified)	0.24	24	–	–
Cc1ccc(C2CCCNC2)cc1C (stereo unspecified)	0.14	19	–	–
CCCN1CCCC(c2ccc(C)c(C)c2)C1 (stereo unspecified)	0.0191	8.2	4.99	102
NCCc1ccc(O)c(O)c1 [DOPAMINE]	–	–	–	4.3
CCCN1CCC[C@@H](c2cccc(O)c2)C1 [PRECLAMOL]	0.53	12	2.1	–

From ChEMBL document CHEMBL1131416 (J Med Chem, 1998)
